Reference: US12295997B2, “Prostate neoantigens and their uses” (Janssen Biotech, Inc., priority 2020, dated 2025)

B1: P19 (peptide, listed as Homo sapiens)
chain: WTPIPVLTRWPLPHPPPWRRATSCRMARSSPSATSGSSVRRRCSSLPSWVWNLAASTRPRSTPS

Legend:
[1] = tested on: CD8+ T cells in PBMCs from human patients with metastatic castrate-resistant prostate cancer; test: Patient PBMC restimulation assay (in vitro immunogenicity, TNFα/IFNγ intracellular flow cytometry); format: cell-based; conditions: 9-mer peptide; for Maximum fold change over negative control: TNFα+IFNγ+CD8+ T cells, highest across PBMC donors evaluated; for Maximum frequency of TNFα^+IFNγ^+CD8^+ T cells (Percent): greatest frequency among all tested PBMC donors; for Immunogenic: patient PBMC restimulation
Procedure: PBMCs from human patients with metastatic castrate-resistant prostate cancer were thawed using media (RPMI 1640 supplemented with Glutamax, 10% HI FBS, and 1× Sodium Pyruvate). Cells were counted and plated in a 96 well round bottom microplate at a concentration of 250,000 viable cells per well. Lyophilized peptides were solubilized in 100% DMSO and diluted in media to 10 μg/mL. Neoantigen peptides were added in equal volume to PBMCs for a final concentration of 5 μg/mL. CEF Peptide Pool “Plus” (Cellular Technologies, Ltd.) was utilized as a positive control and DMSO at the same final concentration as the experimental peptides was utilized as a negative control. Human IL-15 (Peprotech) was added to all wells at final concentration of 10 ng/mL.
Plates were incubated at 37° C. (5% CO2) for a total of 13 days. Media was refreshed every 2 days with IL-15 (10 ng/mL final concentration) and IL-2 (R&D systems, 10 IU/mL final concentration). On day 12, PBMCs were re-stimulated with identical experimental peptides or controls, at same concentration as peptide stimulation on Day 1. After 1-hour incubation, protein Inhibitor Cocktail (eBioscience) was added to every well and plate was incubated overnight.
On day 13, cells were stained for intracellular flow cytometry analysis. The cells were washed with PBS and stained with Live/Dead Fixable Aqua Dead Cell stain (Thermo-Fisher). Following the live/dead stain, cells were blocked using Biotin-Free Fc Receptor Blocker (Accurate Chemical & Scientific Corp). Extracellular cellular flow panel ([…] per well in 50 μL) consisted of CD3 PerCP-Cy5.5 (Biolegend), CD4 BV421 (Biolegend), and CD8 APC-Cy7 (Biolegend). After extracellular staining, cells were fixed using Foxp3/fTranscription Factor Staining Buffer Set (eBioscience) and stained for intracellular proteins (1:50 dilution) using TNFα FITC (R&D Systems) and IFNγ BV785 (Biolegend). Cells were washed and resuspended in stain buffer and analyzed using a BD Celesta flow cytometer.
Flow cytometry cell staining analysis was completed using FlowJo v10. Cells were gated on live, singlet, CD3+ cells. The CD8+ T cells were analyzed for TNFα/IFNγ expression and the frequency of double positive TNFα/IFNγ CD8+ T cells was recorded. Responses were assessed to be positive when the frequency of double positive TNFα/IFNγ CD8+ T cells due to stimulation with an experimental peptide was increased greater than or equal to 2-fold over the DMSO only negative control for that patient. Peptides were analyzed in 1 to 7 patient samples.
The 9 mer fragments shown in Table 13 were assessed for their ability to activate T cells using the Patient PBMC restimulation assay described in Example 1 using TNFα and IFNγ production by CD8^+ T cells as a readout. Self-antigens shown in Table 15 were also used in the assays. […] PBMCs from ten patients were evaluated.

HLA-A*03:01 = HLA-A*03:01 (Homo sapiens, UniProt P04439); test: In vitro binding of neoantigens to class I MHC (UV peptide exchange, HLA class I ELISA); conditions: 100% = same binding as positive control peptide
Procedure: The 9 mer peptides identified by bioinformatics analysis were analyzed for their binding propensities to 6 common HLA class I alleles (HLA-A*01:01, A*02:01, A*03:01, A*24:02, B*07:02, B*08:01). The principle of the method is briefly described below and consists of two parts, one involving exchange of peptide with a positive control induced by Ultraviolet (UV) radiation, and the second is an enzyme immunoassay to detect stable HLA-peptide and empty HLA complexes.
HLA-bound peptides are critical for the stability of the HLA complex. A conditional HLA class I complex was stabilized by an UV-labile peptide utilizing a different peptide (Pos) for each HLA (Pos: HLA-A*01:01: […](SEQ ID NO: 409), HLA-A*02:01: […] (SEQ ID NO: 410), HLA-A*03:01: […] (SEQ ID NO: 411), HLA-A*24:02: […] (SEQ ID NO: 412), HLA-B*07:02: […] (SEQ ID NO: 413), HLA-B*08:01: […] (SEQ ID NO: 414), which could be cleaved by UV irradiation when bound to the HLA molecule. Upon cleavage, the resulting peptide fragments dissociated from the HLA class I complex since their length was insufficient to bind stably to HLA. Under the conditions in which peptide cleavage was performed (neutral pH, on melting ice), the peptide-free HLA complex remained stable.
The exchange efficiency between the peptide of interest and Pos was analyzed using an HLA class I ELISA. The combined technologies allowed the identification of ligands for an HLA molecule of interest which are potentially immunogenic.
Exchange control peptide Pos was a high affinity binder to the relevant HLA class I allele while exchange control peptide Neg was a non-binder. The UV control represented UV-irradiation of conditional HLA class I complex in the absence of a rescue peptide.
The HLA class I ELISA is an enzyme immunoassay based on the detection of beta2-microglobulin (B2M) of (peptide-stabilized) HLA class I complexes. To this end streptavidin was bound onto polystyrene microtiter wells. After washing and blocking, HLA complex present in exchange reaction mixtures or ELISA controls was captured by the streptavidin on the microtiter plate via its biotinylated heavy chain. Non-bound material was removed by washing. Subsequently, horseradish peroxidase (HRP)-conjugated antibody to human B2M was added. The HRP-conjugated antibody binds only to an intact HLA complex present in the microtiter well because unsuccessful peptide exchange results in disintegration of the original UV-sensitive HLA complex upon UV illumination. In the latter case B2M was removed during the washing step. After removal of non-bound HRP conjugate by washing, a substrate solution was added to the wells. A coloured product formed in proportion to the amount of intact HLA complex present in the samples. After the reaction was terminated by the addition of a stop solution, absorbance was measured in a microtiter plate reader. The absorbance was normalized to the absorbance of an exchange control peptide (represents 100%). Suboptimal HLA binding of peptides with a moderate to low affinity for HLA class I molecules can also be detected by this ELISA technique (Rodenko, B et al. (2006) Nature Protocols 1: 1120-32).
Peptides that had 10% or greater exchange efficiency in one of the 6 HLA alleles were considered for further immunogenicity testing and analysis.
Binding of select neoepitopes to HLA-A*01:01, HLA-A*02:01, HLA-A*03:01, HLAA*24:02, HLAAB*07:02 and HLA-B*08:01 was evaluated using the assay described in Example 1. […] As a criterion for further evaluation, peptides with an exchange rate of at least 10% with the corresponding Pos peptide for at least one of the 6 HLA alleles that we considered for further evaluation. The exchange rates with the allele specific Pos peptides, of the 24 neoantigens so identified are summarized below in Table 17. Higher percentages correspond to stronger binding to the HLA allele.

Row | Molecule | Maximum fold change over negative control [1] | Maximum frequency of TNFα^+IFNγ^+CD8^+ T cells (Percent) [1] | Immunogenic [1] | Exchange rate with allele specific Pos peptide, HLA-A*03:01 (HLA-A*03:01)
1 | P46 (DDRNTFDIVWWCPMSRLRLALTVPPSTTTTCVTVPAWAA; listed as Homo sapiens) [Peptide P46] | 2.33 | 0.140% | Yes | 10.3%
2 | P56 (PKSEVRAKCKFSILNAK; listed as Homo sapiens) [Peptide P56] | 11.57 | 1.620% | Yes | 6.8%
3 | P58 (MMAEIISVHVPKILSGK; listed as Homo sapiens) [Peptide P58] | – | 5.370% | Yes | 32.5%
4 | P60 (CYLRRQKRLKCEKQPGA; listed as Homo sapiens) [Peptide P60] | 2.08 | 0.340% | Yes | 36.6%
5 | P61 (MFENGCYLGRQKRFKCE; listed as Homo sapiens) [Peptide P61] | – | 0.084% | Yes | 2.1%
6 | P73 (DSSGNLLERNSFEVRV; listed as Homo sapiens) [Peptide P73] | 2.97 | 0.110% | Yes | 3.5%
7 | P97 (GYLRMQGLMAQRLLLR; listed as Homo sapiens) [Peptide P97] | 4.55 | 0.160% | Yes | 39%
8 | P98: neoantigen 9 mer fragment used for PBMC stimulation (FIG. 5D) (IVWWCPMSR; listed as Homo sapiens) [Neoantigen P98] | 14.93 | 1.000% | Yes | 51.1%
9 | SLYHREKQLIAMDSAI (listed as Homo sapiens) [Neoantigen P22] | – | 0.120% | Yes | 4.8%
10 | YEAGMTLGEKFRVGNCKHLKMTRP (listed as Homo sapiens) [Neoantigen P82] | 3.46 | 0.970% | Yes | 58.1%
11 | YEAGMTLGGKILFFLFLLLPLSPFSLIF (listed as Homo sapiens) [Neoantigen P87] | 3.24 | 0.120% | Yes | 2.4%
12 | B1 | 5.00 | 0.480% | Yes | 4.1%
